Source: patent publication US20250064968A1, “ANTIBODY-CONJUGATED CHEMICAL […] OF D[…] H[…] LINKERS AND METHODS THEREOF” (Genentech, Inc., priority 2022, published 2025)

How the values were obtained:
BRM = molecular target: T1, BRM (Homo sapiens, UniProt P51531); test: Cell assays to determine DC50 and Dmax (nuclear BRM immunofluorescence after Ab-CIDE treatment); type: cell-based; set-up: DCmax (NCI-H1944): unit not given here; details: NCI-H1944 cells, 24 h drug treatment
T1 construct: endogenous in cells; host or cells: HCC515 and H1944 (NCI-H1944) cells
Protocol: HCC515 and H1944 cells were plated in 384 well plates at 4000 and 2500 cells/well, respectively. The next day Ab-CIDEs were added. Following 24 h of drug treatment the cells were fixed with […] for 15 minutes. The plates were washed three time with PBS. The cells were incubated with IF blocking solution ([…], 10% BSA, 0.1% Triton, 0.010% Azide, X-100 in PBS). After 1.5 h a 2× solution of primary antibody diluted in IF blocking buffer: BRM (Cell signaling Cat #11966, 1:2000) was added. The plates were incubated over night at 4° C. The following morning cells were washed three time with PBS. Cells were then incubated with secondary antibodies (rabbit-Alexa 488 A21206 (1:2000)) for 1 h at room temperature in the dark. Hoechst H3570 at 1:5000 was added to the wells and the plates were incubated for an additional 30 minutes. Plates were wash 3×PBS and image on Opera Phenix™ High Content Screening System. Using nuclear staining as a mask, nuclear BRM mean signal intensity was quantified.

[1] = Stability of antibody-conjugated L1-CIDE at high DAR (DAR 14 synthesis); type: physicochemical; details: antibody conjugate from DAR 14 synthesis
From the text: The hydrolysable linkers therefore are able to provide an advantage in obtaining high DAR, which results in high numbers of CTDEs that can be attached to a single antibody.

[2] = Ab target TfR2, conjugate DAR 5.41-6.14
[3] = Ab target TfR2, high-DAR conjugate (DAR 13.13-13.75)

T1 sequence (P51531 whole entry): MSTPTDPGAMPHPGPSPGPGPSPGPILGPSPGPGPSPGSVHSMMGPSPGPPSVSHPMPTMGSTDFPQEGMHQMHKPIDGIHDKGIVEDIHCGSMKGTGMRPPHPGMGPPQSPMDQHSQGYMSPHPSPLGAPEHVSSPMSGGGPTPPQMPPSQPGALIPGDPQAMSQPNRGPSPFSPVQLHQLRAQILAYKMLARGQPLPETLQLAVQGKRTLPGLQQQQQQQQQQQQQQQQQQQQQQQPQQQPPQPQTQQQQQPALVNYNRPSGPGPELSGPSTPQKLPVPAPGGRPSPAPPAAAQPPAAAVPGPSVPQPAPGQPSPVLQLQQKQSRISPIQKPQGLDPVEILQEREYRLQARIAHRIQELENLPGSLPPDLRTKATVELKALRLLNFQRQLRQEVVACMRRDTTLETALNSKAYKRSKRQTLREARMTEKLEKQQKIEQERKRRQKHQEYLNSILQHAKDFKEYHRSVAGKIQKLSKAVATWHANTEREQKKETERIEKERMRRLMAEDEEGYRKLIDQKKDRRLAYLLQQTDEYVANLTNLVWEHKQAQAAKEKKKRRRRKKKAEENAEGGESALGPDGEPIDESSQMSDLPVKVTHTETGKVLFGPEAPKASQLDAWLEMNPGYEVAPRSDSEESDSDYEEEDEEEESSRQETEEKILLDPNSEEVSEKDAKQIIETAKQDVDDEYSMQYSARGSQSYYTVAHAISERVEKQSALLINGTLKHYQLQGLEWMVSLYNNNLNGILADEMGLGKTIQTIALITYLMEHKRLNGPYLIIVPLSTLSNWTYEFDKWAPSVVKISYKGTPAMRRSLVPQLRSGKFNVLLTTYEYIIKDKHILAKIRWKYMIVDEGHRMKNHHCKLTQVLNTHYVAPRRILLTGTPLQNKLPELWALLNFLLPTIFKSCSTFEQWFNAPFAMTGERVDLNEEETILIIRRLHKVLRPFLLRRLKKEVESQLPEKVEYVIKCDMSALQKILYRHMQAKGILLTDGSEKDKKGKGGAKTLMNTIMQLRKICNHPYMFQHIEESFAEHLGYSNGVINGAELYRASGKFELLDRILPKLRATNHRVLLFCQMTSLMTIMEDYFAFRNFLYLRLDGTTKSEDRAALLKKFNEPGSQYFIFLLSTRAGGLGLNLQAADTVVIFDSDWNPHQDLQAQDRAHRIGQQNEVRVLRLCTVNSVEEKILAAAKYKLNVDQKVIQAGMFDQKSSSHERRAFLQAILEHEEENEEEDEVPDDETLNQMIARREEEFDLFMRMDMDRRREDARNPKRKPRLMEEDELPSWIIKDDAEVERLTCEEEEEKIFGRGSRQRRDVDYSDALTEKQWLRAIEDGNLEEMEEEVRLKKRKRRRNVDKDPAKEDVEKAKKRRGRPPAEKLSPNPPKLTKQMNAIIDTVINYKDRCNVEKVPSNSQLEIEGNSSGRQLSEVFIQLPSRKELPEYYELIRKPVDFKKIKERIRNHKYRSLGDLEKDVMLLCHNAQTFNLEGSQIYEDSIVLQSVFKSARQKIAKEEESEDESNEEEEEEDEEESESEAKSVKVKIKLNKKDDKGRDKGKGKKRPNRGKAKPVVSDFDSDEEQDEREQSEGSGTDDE

Compound | DC50 (BRM; [2]) | DCmax (NCI-H1944) (BRM; [2]) | DC50 (NCI-H1944) (BRM; [2]) | Stability [1] | DCmax (NCI-H1944) (BRM; [3]) | DC50 (BRM; Ab target TfR2, high-DAR conjugate (DAR 13.75))
Cc1ncsc1-c1ccc([C@H](C)NC(=O)[C@@H]2C[C@@H](O)CN2C(=O)[C@@H](c2cc(OCCN3CCN(CCOc4cc(N5C6CCC5CN(c5cc(-c7ccccc7OCc7ccc(NC(=O)[C@H](CCCCN(C)C)NC(=O)C8(C(=O)NCCCCCNC(=O)[C@H](CO)N9C(=O)C=CC9=O)CCC8)cc7)nnc5N)C6)ccn4)[C@H](C)C3)no2)C(C)C)cc1.O=C(O)C(F)(F)F [Hy-B-CIDE-1] | 128 nM | 89 | – | – | – | –
COC[C@@H](C(=O)NCCCCCNC(=O)C1(C(=O)N[C@@H](CCCCN(C)C)C(=O)Nc2ccc(COc3ccccc3-c3cc(N4CC5CCC(C4)N5c4ccnc(OCCN5CCN(CCOc6cc([C@H](C(=O)N7C[C@H](O)C[C@H]7C(=O)N[C@@H](C)c7ccc(-c8scnc8C)cc7)C(C)C)on6)C[C@H]5C)c4)c(N)nn3)cc2)CCC1)N1C(=O)C=CC1=O.O=C(O)C(F)(F)F [Hy-B-CIDE-2] | 160 nM | 90 | – | – | – | –
Cc1ncsc1-c1ccc([C@H](C)NC(=O)[C@@H]2C[C@@H](O)CN2C(=O)[C@@H](c2cc(OCCN3CCN(CCOc4cc(N5C6CCC5CN(c5cc(-c7ccccc7OCc7ccc(NC(=O)[C@H](CCCCN(C)C)NC(=O)C8(C(=O)NCCN(C)CCN9C(=O)C=CC9=O)CCC8)cc7)nnc5N)C6)ccn4)[C@H](C)C3)no2)C(C)C)cc1.O=C(O)C(F)(F)F [Hy-B-CIDE-5] | 412 nM | 76 | – | – | – | –
Cc1ncsc1-c1ccc([C@H](C)NC(=O)[C@@H]2C[C@@H](O)CN2C(=O)[C@@H](c2cc(OCCN3CCN(CCOc4cc(N5C6CCC5CN(c5cc(-c7ccccc7OCc7ccc(NC(=O)[C@H](CCCCN(C)C)NC(=O)C8(C(=O)NCCCCCNC(=O)CN9C(=O)C=CC9=O)CCC8)cc7)nnc5N)C6)ccn4)[C@H](C)C3)no2)C(C)C)cc1.O=C(O)C(F)(F)F [Hy-B-CIDE-6] | – | 90 | 0.28 µg/mL | – | – | –
CC(C)[C@@H](C(=O)N1C[C@H](O)C[C@H]1C(=O)N[C@@H](C)c1ccc(C#N)cc1)c1cc(OCCN2CCC(O[C@H]3C[C@H](Oc4cc(N5C6CCC5CN(c5cc(-c7ccccc7OCc7ccc(NC(=O)[C@H](CCCCN(C)C)NC(=O)C8(C(=O)NCCN(C)CCN9C(=O)C=CC9=O)CCC8)cc7)nnc5N)C6)ccn4)C3)CC2)no1 [Hy-B-CIDE-7] | 205 nM | 62 | – | Stable | 75 | 89.6 nM
Cc1ncsc1-c1ccc([C@H](C)NC(=O)[C@@H]2C[C@@H](O)CN2C(=O)[C@@H](c2cc(OCCN3CCN(CCOc4cc(N5C6CCC5CN(c5cc(-c7ccccc7OCc7ccc(NC(=O)[C@H](CCCCN(C)C)NC(=O)C8(C(=O)NCCCCCN(C)CCN9C(=O)C=CC9=O)CCC8)cc7)nnc5N)C6)ccn4)[C@H](C)C3)no2)C(C)C)cc1.O=C(O)C(F)(F)F [Hy-B-CIDE-8] | 85.6 nM | 74 | – | – | – | –
CC(C)[C@@H](C(=O)N1C[C@H](O)C[C@H]1C(=O)N[C@@H](C)c1ccc(C#N)cc1)c1cc(OCCN2CCC(O[C@H]3C[C@H](Oc4cc(N5C6CCC5CN(c5cc(-c7ccccc7O)nnc5NC(=O)OCc5ccc(NC(=O)[C@H](CCCCN(C)C)NC(=O)C7(C(=O)NCCCCCN(C)CCN8C(=O)C=CC8=O)CCC7)cc5)C6)ccn4)C3)CC2)no1.O=C(O)C(F)(F)F [Hy-B-CIDE-9] | 2200 nM | 82 | – | – | – | –
CC(C)[C@@H](C(=O)N1C[C@H](O)C[C@H]1C(=O)N[C@@H](C)c1ccc(C#N)cc1)c1cc(OCCN2CCC(O[C@H]3C[C@H](Oc4cc(N5C6CCC5CN(c5cc(-c7ccccc7O)nnc5NC(=O)OCc5ccc(NC(=O)[C@H](CCCCN(C)C)NC(=O)C7(C(=O)NCCCCCNC(=O)[C@H](CO)N8C(=O)C=CC8=O)CCC7)cc5)C6)ccn4)C3)CC2)no1 [Hy-B-CIDE-10] | 4440 nM | 80 | – | – | – | –
CC(C)[C@@H](C(=O)N1C[C@H](O)C[C@H]1C(=O)N[C@@H](C)c1ccc(C#N)cc1)c1cc(OCCN2CCC(O[C@H]3C[C@H](Oc4cc(N5C6CCC5CN(c5cc(-c7ccccc7OCc7ccc(NC(=O)[C@H](CCCCN(C)C)NC(=O)C8(C(=O)NCCCCCN(C)CCN9C(=O)C=CC9=O)CCC8)cc7)nnc5N)C6)ccn4)C3)CC2)no1 [Hy-B-CIDE-11] | 23200 nM | 53 | – | – | – | –
CC(C)[C@@H](C(=O)N1C[C@H](O)C[C@H]1C(=O)N[C@@H](C)c1ccc(C#N)cc1)c1cc(OCCN2CCC(O[C@H]3C[C@H](Oc4cc(N5C6CCC5CN(c5cc(-c7ccccc7OCc7ccc(NC(=O)[C@H](CCCCN(C)C)NC(=O)C8(C(=O)NCCCCCNC(=O)[C@H](CO)N9C(=O)C=CC9=O)CCC8)cc7)nnc5N)C6)ccn4)C3)CC2)no1 [Hy-B-CIDE-12] | 12600 nM | 60 | – | – | – | –
CC(C)[C@@H](C(=O)N1C[C@H](OP(=O)(O)O)C[C@H]1C(=O)N[C@@H](C)c1ccc(C#N)cc1)c1cc(OCCN2CCC(O[C@H]3C[C@H](Oc4cc(N5C6CCC5CN(c5cc(-c7ccccc7OCc7ccc(NC(=O)[C@H](CCCCN(C)C)NC(=O)C8(C(=O)NCCN(C)CCN9C(=O)C=CC9=O)CCC8)cc7)nnc5N)C6)ccn4)C3)CC2)no1 [Hy-B-PCIDE-2] | – | – | – | Stable | 42 | –
